Source: the Kinase Knowledgebase extract (Sharma et al. 2016)

Experiments:
[1] = target: PIK3CA (human) (UniProt P42336); experiment: Inhibition of PIK3CA Kinase Activity
[2] = target: PIK3CG (human) (UniProt P48736); experiment: Enzyme Assay
[3] = target: PIK3CD (Human) (UniProt O00329); experiment: Enzyme Assay
[4] = target: PIK3CB (Human) (UniProt P42338); experiment: Inhibition of PIK3CB Kinase Activity
Sequence of PIK3CB (Human) (P42338 whole entry, looked up): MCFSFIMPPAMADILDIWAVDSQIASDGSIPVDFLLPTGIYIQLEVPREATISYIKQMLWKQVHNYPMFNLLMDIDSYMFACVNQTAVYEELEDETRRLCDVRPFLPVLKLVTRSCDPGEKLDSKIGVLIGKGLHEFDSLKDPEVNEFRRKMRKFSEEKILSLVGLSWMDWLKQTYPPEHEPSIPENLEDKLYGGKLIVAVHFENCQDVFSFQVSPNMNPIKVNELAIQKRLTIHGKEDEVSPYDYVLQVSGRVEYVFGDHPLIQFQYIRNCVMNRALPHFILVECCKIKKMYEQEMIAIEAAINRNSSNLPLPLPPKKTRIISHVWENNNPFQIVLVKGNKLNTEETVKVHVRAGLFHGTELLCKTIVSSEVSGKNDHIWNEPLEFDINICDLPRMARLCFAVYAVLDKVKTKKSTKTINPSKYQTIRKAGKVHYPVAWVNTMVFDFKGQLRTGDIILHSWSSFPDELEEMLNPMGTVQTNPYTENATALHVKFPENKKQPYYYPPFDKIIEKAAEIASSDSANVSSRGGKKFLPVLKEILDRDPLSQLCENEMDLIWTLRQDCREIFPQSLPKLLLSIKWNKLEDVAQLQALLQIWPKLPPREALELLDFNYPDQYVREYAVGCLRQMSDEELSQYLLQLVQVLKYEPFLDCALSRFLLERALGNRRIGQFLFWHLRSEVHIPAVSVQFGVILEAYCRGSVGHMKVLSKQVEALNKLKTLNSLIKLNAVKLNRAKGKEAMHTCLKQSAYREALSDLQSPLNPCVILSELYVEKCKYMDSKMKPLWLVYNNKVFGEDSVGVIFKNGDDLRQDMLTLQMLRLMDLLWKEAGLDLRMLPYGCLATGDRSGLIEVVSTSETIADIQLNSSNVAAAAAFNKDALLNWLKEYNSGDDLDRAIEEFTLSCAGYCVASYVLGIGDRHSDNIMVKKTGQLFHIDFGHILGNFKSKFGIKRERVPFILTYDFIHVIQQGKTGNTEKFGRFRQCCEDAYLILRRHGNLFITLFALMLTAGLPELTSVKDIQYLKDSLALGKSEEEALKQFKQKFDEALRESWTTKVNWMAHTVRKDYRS

Sequence of PIK3CA (human) (P42336 whole entry, looked up): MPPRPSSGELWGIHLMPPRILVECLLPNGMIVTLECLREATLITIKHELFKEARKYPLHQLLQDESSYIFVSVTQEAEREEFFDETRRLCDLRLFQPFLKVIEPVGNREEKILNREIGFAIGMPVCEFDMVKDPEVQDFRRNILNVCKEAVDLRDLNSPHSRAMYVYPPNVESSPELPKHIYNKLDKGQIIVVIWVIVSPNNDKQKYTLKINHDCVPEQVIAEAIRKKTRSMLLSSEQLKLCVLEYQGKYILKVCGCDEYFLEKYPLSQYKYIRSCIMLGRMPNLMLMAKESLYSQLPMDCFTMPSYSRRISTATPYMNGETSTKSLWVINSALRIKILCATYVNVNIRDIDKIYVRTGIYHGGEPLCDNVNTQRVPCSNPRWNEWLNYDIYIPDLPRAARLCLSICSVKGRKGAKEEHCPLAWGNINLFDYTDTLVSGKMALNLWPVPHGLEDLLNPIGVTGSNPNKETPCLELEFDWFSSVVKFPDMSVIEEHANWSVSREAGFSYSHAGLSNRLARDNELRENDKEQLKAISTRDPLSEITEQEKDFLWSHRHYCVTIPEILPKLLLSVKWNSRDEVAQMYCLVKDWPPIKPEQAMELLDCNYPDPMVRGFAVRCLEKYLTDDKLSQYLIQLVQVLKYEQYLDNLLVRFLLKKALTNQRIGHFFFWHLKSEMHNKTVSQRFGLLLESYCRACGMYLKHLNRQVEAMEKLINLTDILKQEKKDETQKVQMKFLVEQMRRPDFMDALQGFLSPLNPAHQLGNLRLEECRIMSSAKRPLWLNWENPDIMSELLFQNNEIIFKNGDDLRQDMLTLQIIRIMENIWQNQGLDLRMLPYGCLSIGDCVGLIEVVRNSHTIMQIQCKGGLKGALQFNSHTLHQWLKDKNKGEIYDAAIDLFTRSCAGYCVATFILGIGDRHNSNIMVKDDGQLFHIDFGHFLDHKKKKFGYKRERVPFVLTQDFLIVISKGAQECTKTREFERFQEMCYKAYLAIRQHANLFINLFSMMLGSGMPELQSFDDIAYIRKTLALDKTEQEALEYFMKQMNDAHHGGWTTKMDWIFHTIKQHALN
Sequence of PIK3CG (human) (P48736 whole entry, looked up): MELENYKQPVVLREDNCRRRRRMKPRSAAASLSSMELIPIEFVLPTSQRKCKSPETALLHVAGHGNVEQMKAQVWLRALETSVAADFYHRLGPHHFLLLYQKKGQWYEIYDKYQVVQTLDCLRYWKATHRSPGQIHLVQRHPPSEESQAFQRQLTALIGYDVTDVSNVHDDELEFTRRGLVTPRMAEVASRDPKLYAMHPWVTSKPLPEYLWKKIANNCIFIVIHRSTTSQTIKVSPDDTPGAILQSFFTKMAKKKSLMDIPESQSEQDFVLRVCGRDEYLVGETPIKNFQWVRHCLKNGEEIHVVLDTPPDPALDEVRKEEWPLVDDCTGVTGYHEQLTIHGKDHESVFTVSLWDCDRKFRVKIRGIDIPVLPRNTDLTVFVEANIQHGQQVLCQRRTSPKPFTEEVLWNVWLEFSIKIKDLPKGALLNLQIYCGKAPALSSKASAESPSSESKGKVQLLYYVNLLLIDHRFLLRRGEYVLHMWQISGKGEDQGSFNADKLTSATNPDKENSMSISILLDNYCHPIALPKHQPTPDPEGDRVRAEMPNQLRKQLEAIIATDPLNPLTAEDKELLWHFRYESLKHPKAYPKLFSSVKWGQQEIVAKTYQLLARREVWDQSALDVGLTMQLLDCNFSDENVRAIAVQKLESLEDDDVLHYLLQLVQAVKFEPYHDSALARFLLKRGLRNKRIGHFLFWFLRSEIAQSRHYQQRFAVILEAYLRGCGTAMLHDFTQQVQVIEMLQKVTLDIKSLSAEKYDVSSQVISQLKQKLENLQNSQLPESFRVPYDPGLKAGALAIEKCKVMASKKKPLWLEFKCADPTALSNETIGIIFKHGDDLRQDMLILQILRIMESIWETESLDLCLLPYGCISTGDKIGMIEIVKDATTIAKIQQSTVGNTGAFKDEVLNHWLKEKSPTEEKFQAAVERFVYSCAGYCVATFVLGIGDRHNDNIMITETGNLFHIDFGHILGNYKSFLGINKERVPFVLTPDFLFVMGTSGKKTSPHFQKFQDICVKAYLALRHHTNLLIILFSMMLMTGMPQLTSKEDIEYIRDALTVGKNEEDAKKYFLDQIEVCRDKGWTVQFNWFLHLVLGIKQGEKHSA
Sequence of PIK3CD (Human) (O00329 whole entry, looked up): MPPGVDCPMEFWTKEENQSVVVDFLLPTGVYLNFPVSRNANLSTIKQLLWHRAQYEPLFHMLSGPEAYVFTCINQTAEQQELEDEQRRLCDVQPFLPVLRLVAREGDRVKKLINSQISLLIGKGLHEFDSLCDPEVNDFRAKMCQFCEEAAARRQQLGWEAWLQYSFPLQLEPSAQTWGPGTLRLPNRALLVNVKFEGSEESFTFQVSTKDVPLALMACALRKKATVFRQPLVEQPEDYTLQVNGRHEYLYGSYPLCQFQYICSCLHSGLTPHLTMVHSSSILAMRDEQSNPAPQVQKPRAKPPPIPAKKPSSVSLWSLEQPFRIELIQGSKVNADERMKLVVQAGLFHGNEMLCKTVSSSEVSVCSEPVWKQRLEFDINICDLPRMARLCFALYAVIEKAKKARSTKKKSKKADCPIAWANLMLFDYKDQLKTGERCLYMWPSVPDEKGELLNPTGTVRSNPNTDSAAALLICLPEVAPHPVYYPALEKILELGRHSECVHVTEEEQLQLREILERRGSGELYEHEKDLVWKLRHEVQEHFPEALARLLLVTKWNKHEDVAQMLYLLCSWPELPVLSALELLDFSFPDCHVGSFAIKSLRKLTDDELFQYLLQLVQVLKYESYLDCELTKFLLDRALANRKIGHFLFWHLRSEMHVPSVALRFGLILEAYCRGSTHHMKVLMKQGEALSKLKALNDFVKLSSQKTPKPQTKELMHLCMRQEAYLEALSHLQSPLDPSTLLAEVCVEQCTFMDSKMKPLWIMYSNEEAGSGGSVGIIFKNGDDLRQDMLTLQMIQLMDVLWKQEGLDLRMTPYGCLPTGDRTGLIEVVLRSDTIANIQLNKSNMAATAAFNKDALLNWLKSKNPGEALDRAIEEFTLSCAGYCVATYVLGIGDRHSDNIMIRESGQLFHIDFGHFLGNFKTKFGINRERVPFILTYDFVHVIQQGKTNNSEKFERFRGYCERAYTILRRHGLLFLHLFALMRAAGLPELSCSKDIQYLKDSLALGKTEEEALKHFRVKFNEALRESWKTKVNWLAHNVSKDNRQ

Row | Compound | IC50 [1] | IC50 [2] | IC50 [3] | IC50 [4]
1 | CC(C)n1nc(-c2ccc3nc(NCCO)sc3c2)c2c(N)ncnc21 | 500 to 1000 nM |  |  | 
2 | CCNc1nc2ccc(-c3nn(C(C)C)c4ncnc(N)c34)cc2s1 | 100 to 500 nM | 100 to 500 nM | 500 to 1000 nM | 
3 | CCC(=O)Nc1nc2ccc(-c3nn(C(C)C)c4ncnc(N)c34)cc2s1 | 100 to 500 nM |  |  | 
4 | CC(C)n1nc(-c2ccc3nc(N)sc3c2)c2c(N)ncnc21 | 100 to 500 nM | ≤ 50 nM | 50 to 100 nM | 
5 | CNc1nc2ccc(-c3nn(C(C)C)c4ncnc(N)c34)cc2s1 | 50 to 100 nM | ≤ 50 nM | 100 to 500 nM | 
6 | CNC(=O)Nc1nc2ccc(-c3cn(C4CCOCC4)c4ncnc(N)c34)cc2s1 | ≤ 50 nM | ≤ 50 nM | ≤ 50 nM | ≤ 50 nM
7 | CC(=O)Nc1nc2ccc(-c3nn(C4CCC4)c4ncnc(N)c34)cc2s1 | 50 to 100 nM | ≤ 50 nM | 50 to 100 nM | 
8 | CC(=O)Nc1nc2ccc(-c3nn(C(C)C)c4ncnc(N)c34)cc2s1 | 100 to 500 nM | ≤ 50 nM | ≤ 50 nM | 
9 | CC(=O)Nc1nc2ccc(-c3nn(C)c4ncnc(N)c34)cc2s1 | 500 to 1000 nM |  |  | 
10 | CCn1nc(-c2ccc3nc(NC(C)=O)sc3c2)c2c(N)ncnc21 | 50 to 100 nM | ≤ 50 nM | ≤ 50 nM | 
11 | CC(C)n1nc(-c2cc3cccc(O)c3[nH]2)c2c(N)ncnc21 |  | 100 to 500 nM | 100 to 500 nM | 
12 | CC(=O)Nc1nc2ccc(-c3nn(C4CCCC4)c4ncnc(N)c34)cc2s1 | ≤ 50 nM | ≤ 50 nM | ≤ 50 nM | 
13 | CC(C)n1nc(-c2cc3cc(O)cc(Cl)c3[nH]2)c2c(N)ncnc21 |  | 25 to 50 nM | 25 to 50 nM | 
14 | CC(=O)Nc1nc2ccc(-c3nn(C4CCOCC4)c4ncnc(N)c34)cc2s1 | 100 to 500 nM | ≤ 50 nM | ≤ 50 nM | 
15 | CNC(=O)Nc1nc2ccc(-c3cn(C(C)C)c4ncnc(N)c34)cc2s1 | ≤ 50 nM | ≤ 50 nM | ≤ 50 nM | ≤ 50 nM
16 | CNC(=O)Nc1nc2ccc(-c3nn(C(C)C)c4ncnc(N)c34)cc2s1 | ≤ 50 nM | ≤ 50 nM | ≤ 50 nM | 
17 | CNC(=O)Nc1nc2ccc(-c3cn(C4CCN(C(C)=O)CC4)c4ncnc(N)c34)cc2s1 | ≤ 50 nM | ≤ 50 nM | ≤ 50 nM | 50 to 100 nM
18 | CC(C)n1nc(-c2cc3cc(O)cc(F)c3[nH]2)c2c(N)ncnc21 |  | 100 to 500 nM | 50 to 100 nM | 
19 | CC(C)n1nc(-c2cc3ccc(O)cc3[nH]2)c2c(N)ncnc21 | 100 to 500 nM | 100 to 500 nM | 100 to 500 nM | 
20 | CC(C)n1nc(-c2ccc3nc(NC(=O)C4CC4)sc3c2)c2c(N)ncnc21 | 500 to 1000 nM |  |  | 
